Results on 14 molecules are retold here after ChEMBL document CHEMBL5441381, “ASAP - In vitro antiviral effect” (2024).

The experiment concerns SARS-CoV-2. In words: Functional immunofluorescence assay to measure dose dependent changes in antiviral-drug inhibitory efficacy against hCoV-19/USA-WA1/2020 in HeLa-ACE2 cells which are seeded prior to drug treatment, then infected with hCoV-19/USA-WA1/2020. Cells are fixed with 10 % formaldehyde, washed with PBS, permeabilized with permeabilization buffer, then washed with wash buffer. The cells are incubated with nucleoprotein primary antibody IC7C7. Following primary staining, cells are washed with wash buffer and incubated in a solution of with Alexa fluor 488 and DAPI. Infected and uninfected cells are visualized and analyzed by Gen5 software. The assay has been performed by Icahn School of Medicine at Mount Sinai. In kind it is organism-based, Homo sapiens.

Where [1] appears, read: Severe acute respiratory syndrome coronavirus 2, HeLa-ACE2.

pEC50: −log10 of the molar value.

Take `CNCc1cc(-c2cc3c(N[C@H](c4ccc5c(c4)S(=O)(=O)CCC5)C(C)C)ncnc3[nH]2)co1`: the negative-log EC50 (pEC50) under setting [1] was 4.96. For the same molecule, where the note is “Severe acute respiratory syndrome coronavirus 2, HeLa-ACE2, Baseline response 0 %, Hill slope -0.715, Maximum measured 94.818 %, Maximum response 100 %, Minimum measured 27.713 %, R squared 0.683”, the EC90 is above 20 µM.

In the case of `CC(C)[C@@H](Nc1ncnc2[nH]c(-c3cnn(CCC(N)=O)c3)cc12)c1ccc2c(c1)OCCO2`, under setting [1], the pEC50 was below 4.70. In addition, the concentration for an effect of 90% (EC90) is above 20 µM (Severe acute respiratory syndrome coronavirus 2, HeLa-ACE2, Maximum measured 112.19 %, Minimum measured 96.19 %) and above 20 µM (Severe acute respiratory syndrome coronavirus 2, HeLa-ACE2, Maximum measured 121.913 %, Minimum measured 97.771 %).

`CC(C)[C@@H](Nc1ncnc2[nH]c(-c3ccc4nnn(C)c4c3)cc12)c1ccc2c(c1)S(=O)(=O)CCC2` gave a pEC50 under setting [1] of 5.44. This molecule also displayed an EC90 (Severe acute respiratory syndrome coronavirus 2, HeLa-ACE2, Baseline response 0 %, Hill slope -0.69, Maximum measured 110.665 %, Maximum response 100 %, Minimum measured 33.895 %, R squared 0.849) above 20 µM.

Regarding `COc1ccc([C@@H](Cc2nnn[nH]2)NC(=O)c2ncnc3[nH]ccc23)cc1`, the pEC50 under setting [1] is below 4.70. Further, where the note is “Severe acute respiratory syndrome coronavirus 2, HeLa-ACE2, Maximum measured 136.92 %, Minimum measured 93.837 %”, the 90% effect concentration (EC90) is above 20 µM.

Molecule `CC(C)[C@@H](Nc1ncnc2[nH]c(-c3cnn(C)c3C#N)cc12)c1ccc2c(n1)NC(=O)CO2` showed a pEC50 under setting [1] of 5.61. Under “Severe acute respiratory syndrome coronavirus 2, HeLa-ACE2, Baseline response 0 %, EC90 CI (lower) 0.524 uM, EC90 CI (upper) 2.251 uM, Hill slope -2.687, Maximum measured 122.922 %, Maximum response 100 %, Minimum measured 8.802 %, R squared 0.907”, this molecule returned an EC90 of 5.57 µM.

Consider `Cc1nn(C)cc1-c1cc2c(N[C@@H](c3ccc4c(c3)S(=O)(=O)CCC4)C(C)C)ncnc2[nH]1`, for which the pEC50 under setting [1] was below 4.70. For the setting “Severe acute respiratory syndrome coronavirus 2, HeLa-ACE2, Maximum measured 131.643 %, Minimum measured 93.649 %”, the EC90 is above 20 µM.

Molecule `CNC(=O)c1cccc(-c2cc3c(N[C@H](c4ccc5c(c4)S(=O)(=O)CCC5)C(C)C)ncnc3[nH]2)c1` had a negative-log EC50 (pEC50) under setting [1] below 4.70. For the same molecule, the 90% effect concentration (EC90) (Severe acute respiratory syndrome coronavirus 2, HeLa-ACE2, Baseline response 0 %, Hill slope -6.666, Maximum measured 112.086 %, Maximum response 100 %, Minimum measured 84.591 %, R squared 0.065) was above 20 µM.

For `CC(C)[C@@H](Nc1ncnc2[nH]c(-c3cnn(CC(=O)N(C)C)c3)cc12)c1ccc2c(c1)OCCO2`, the negative-log EC50 (pEC50) under setting [1] was below 4.70. Also, the 90% effect concentration (EC90) (Severe acute respiratory syndrome coronavirus 2, HeLa-ACE2, Baseline response 0 %, Hill slope -0.679, Maximum measured 102.904 %, Maximum response 100 %, Minimum measured 72.697 %, R squared 0.733) is above 20 µM and the EC90 (Severe acute respiratory syndrome coronavirus 2, HeLa-ACE2, Baseline response 0 %, Hill slope -5.712, Maximum measured 120.313 %, Maximum response 100 %, Minimum measured 86.961 %, R squared 0.099) was above 20 µM.

Under setting [1], `CCNC(=O)c1cc2c(N[C@H](c3ccc4c(c3)OCCO4)C(C)C)ncnc2[nH]1` showed a negative-log EC50 (pEC50) of 4.71. The molecule further gave an EC90 (Severe acute respiratory syndrome coronavirus 2, HeLa-ACE2, Baseline response 0 %, Hill slope -1.464, Maximum measured 109.949 %, Maximum response 100 %, Minimum measured 49.504 %, R squared 0.869) above 20 µM.

In turn, `CC(C)[C@@H](Nc1ncnc2[nH]c(-c3cnn(C)c3)cc12)c1ccc2c(c1)S(=O)(=O)NCC2` had a pEC50 under setting [1] below 4.70. The same molecule had an EC90 (Severe acute respiratory syndrome coronavirus 2, HeLa-ACE2, Baseline response 0 %, Hill slope -6.715, Maximum measured 105.419 %, Maximum response 100 %, Minimum measured 69.993 %, R squared 0.42) above 20 µM.

`CC(C)[C@@H](Nc1ncnc2[nH]c(-c3cnn(CC(=O)N(C)C)c3)cc12)c1ccc2c(c1)S(=O)(=O)CCC2` showed a pEC50 under setting [1] below 4.70. Also, the EC90 (Severe acute respiratory syndrome coronavirus 2, HeLa-ACE2, Baseline response 0 %, Hill slope -0.117, Maximum measured 98.615 %, Maximum response 100 %, Minimum measured 84.991 %, R squared 0.091) was above 20 µM.

`CC(C)[C@H](Nc1ncnc2[nH]c(-c3cnn(C)c3C#N)cc12)c1ccc2c(c1)S(=O)(=O)CCC2`: under setting [1], the negative-log EC50 (pEC50) was 5.21. Moreover, the 90% effect level (Severe acute respiratory syndrome coronavirus 2, HeLa-ACE2, Baseline response 0 %, Hill slope -14.93, Maximum measured 129.006 %, Maximum response 100 %, Minimum measured 5.734 %, R squared 0.877) (EC90) was put at 7.19 µM.

Regarding `CCNC(=O)c1cc2c(N[C@@H](c3ccc4c(c3)S(=O)(=O)NCC4)C(C)C)ncnc2[nH]1`, the pEC50 under setting [1] was below 4.70. Further, the concentration for an effect of 90% (EC90) (Severe acute respiratory syndrome coronavirus 2, HeLa-ACE2, Maximum measured 101.15 %, Minimum measured 78.382 %) is above 20 µM.

The molecule `CCNC(=O)c1cc2c(N[C@@H](c3ccc4c(c3)S(=O)(=O)CCO4)C(C)C)ncnc2[nH]1` showed a pEC50 under setting [1] below 4.70. Also, the concentration for an effect of 90% (EC90) (Severe acute respiratory syndrome coronavirus 2, HeLa-ACE2, Baseline response 0 %, Hill slope -0.398, Maximum measured 111.753 %, Maximum response 100 %, Minimum measured 79.377 %, R squared 0.175) is above 20 µM.

The term pEC50 denotes −log10 of the EC50, conventionally taken in molar units. As a reminder, the EC90 is the concentration needed for an effect of 90%.
